Legend:
[1] = system: Normal Human Articular Chondrocytes (NHAC-knee); experiment: BrdU cell proliferation assay; assay type: cell-based
Description: Clonetics® Normal Human Articular Chondrocytes (NHAC-knee) obtained from Lonza Australia Pty Ltd, were grown in chondrocyte growth medium (CGM) supplemented with growth factors. NHACs were used at passage #3-4 for all experiments.
The following assays were carried out using the protocols as per kit instructions:
Each of the above fractions was then individually assayed again for viability/cytotoxicity, cell growth and proliferation, apoptosis/necrosis using the tests as previously mentioned.

aggrecan = aggrecan RNA expression in cartilage explants (real time RT-PCR); assay type: cell-based, pig; conditions: indosim 0.02 mg/mL
Description: Front legs of market weight pigs (5-7 months old, 200-250 lbs) were obtained from a local abattoir. Legs were chilled on crushed ice until dissection. Using aseptic technique, the intercarpal joint was opened and the cartilage surfaces exposed. A 4 mm dermal biopsy punch was used to take explants (˜0.5 mm thickness; 11-15 mg/explant) of healthy cartilage from the weight-bearing region of both articulating surfaces of the intercarpal joint. Cartilage pieces were washed 3 times in Dubelco's Modified Eagle Medium (DMEM) supplemented with NaHCO3. Two cartilage discs were placed into each well of 24-well tissue culture plates containing DMEM supplemented with amino acids, sodium selenite, manganese sulfate, NaHCO3 and ascorbic acid (TCM—tissue culture medium). Plates were incubated at 37° C., 7% CO2 in a humidified atmosphere for up to 144 h. Every 24 h media was completely aspirated into 1 mL microcentrifuge tubes and immediately replaced with control, conditioned and/or stimulated media (described below) before being returned to the incubator. The collected media was stored at −80° C. until analysis. Cartilage was harvested at the end of each experiment with one explant per well stained for cytotoxicity and the remaining cartilage immediately frozen at −80° C. […]
SEQsim was prepared as explained above. […] Media was analyzed for [PGE2], [GAG], and [NO]. […]

iNOS = iNOS expression in IL-1-stimulated cartilage explants; assay type: cell-based, pig; conditions: IL-1-stimulated explants
Description: Simulated digests were prepared using SEQ (0.85 g), BO [2.5 mL (0.85 g)] and indomethacin (0.074 g—a positive anti-inflammatory control). […]

[2] = system: IL-1 stimulated and unstimulated cartilage explants; experiment: GAG release into media by cartilage explants (1,9-DMB assay); assay type: cell-based, pig; conditions: indosim 0.02 mg/mL
Description: Front legs of market weight pigs (5-7 months old, 200-250 lbs) were obtained from a local abattoir. Legs were chilled on crushed ice until dissection. Using aseptic technique, the intercarpal joint was opened and the cartilage surfaces exposed. A 4 mm dermal biopsy punch was used to take explants ( 0.5 mm thickness; 11-15 mg/explant) of healthy cartilage from the weight-bearing region of both articulating surfaces of the intercarpal joint. Cartilage pieces were washed 3 times in Dubelco's Modified Eagle Medium (DMEM) supplemented with NaHCO3. Two cartilage discs were placed into each well of 24-well tissue culture plates containing DMEM supplemented with amino acids, sodium selenite, manganese sulfate, NaHCO3 and ascorbic acid (TCM-tissue culture medium). Plates were incubated at 37° C., 7% CO2 in a humidified atmosphere for up to 144 h. Every 24 h media was completely aspirated into 1 mL microcentrifuge tubes and immediately replaced with control, conditioned and/or stimulated media (described below) before being returned to the incubator. […] Media was analyzed for [PGE2], [GAG], and [NO]. […] Media GAG concentration was determined using a 1,9-DMB spectrophotometric assay (Chandrasekhar et al., 1987). […] Plates were incubated in the dark for 10 minutes, and absorbance was read on a Victor 3 microplate reader at 530 nm. Sample absorbance was compared to that of a chondroitin sulfate standard. […]

[3] = system: IL-1 stimulated and unstimulated cartilage explants; experiment: nitric oxide (nitrite) in media from cartilage explants; assay type: cell-based, pig; conditions: IL-1-stimulated explants; indosim
Description: Simulated digests were prepared using SEQ (0.85 g), BO [2.5 mL (0.85 g)] and indomethacin (0.074 g—a positive anti-inflammatory control). Each test substance was individually suspended in 35 mL of simulated gastric fluid (37 mM NaCl, 0.03N HCl, 3.2 mg/mL pepsin), and shaken at 37° C. for 2 h (Rininger et al., 2000). After this, solution acidity was neutralized by adding an equinormal volume of 2.2 N NaOH (1.15 mL). To this was added 36.15 mL of simulated intestinal fluid (Rininger et al., 2000−30 mM K2HPO4, 160 mM NaH2PO4; 20 mg/mL pancreatin; pH adjusted to 7.4) and the resultant mixture shaken in a 37° C. incubator for a further 2 h. A “blank” was prepared using identical methodology but without including any test substance.
The supernatant was decanted and centrifuged a second time at 3,000×g for 15 min at 4° C. […]
Synovial fluid [NO]: Nitrite (NO2^−), a stable oxidation product of NO, was analyzed by the Griess reaction (Fenton et al., 2002). […] Sulfanilamide (0.01 g/mL) and N-(1)-Napthylethylene diamine hydrochloride (1 mg/mL) dissolved in phosphoric acid (0.085 g/L) was added to all wells, and absorbance was read within 5 minutes on a Victor 3 microplate reader at 530 nm. Sample absorbance was compared to a sodium nitrite standard.

[4] = system: IL-1-stimulated and unstimulated cartilage explants; experiment: cell viability staining of cartilage explants (C-AM / EthD-1); assay type: cell-based, pig; conditions: indosim 0.02 mg/mL
Description: Front legs of market weight pigs (5-7 months old, 200-250 lbs) were obtained from a local abattoir. Legs were chilled on crushed ice until dissection. Using aseptic technique, the intercarpal joint was opened and the cartilage surfaces exposed. A 4 mm dermal biopsy punch was used to take explants ( 0.5 mm thickness; 11-15 mg/explant) of healthy cartilage from the weight-bearing region of both articulating surfaces of the intercarpal joint. Cartilage pieces were washed 3 times in Dubelco's Modified Eagle Medium (DMEM) supplemented with NaHCO3. Two cartilage discs were placed into each well of 24-well tissue culture plates containing DMEM supplemented with amino acids, sodium selenite, manganese sulfate, NaHCO3 and ascorbic acid (TCM-tissue culture medium). Plates were incubated at 37° C., 7% CO2 in a humidified atmosphere for up to 144 h. Every 24 h media was completely aspirated into 1 mL microcentrifuge tubes and immediately replaced with control, conditioned and/or stimulated media (described below) before being returned to the incubator. […] Media was analyzed for [PGE2], [GAG], and [NO]. […] Cell viability was determined using a commercially available viability staining kit (Invitrogen; Burlington ON) (Pearson et al., 2007). […] The plate was read from the bottom of each well using 10 horizontal steps, 3 vertical steps, and a 0.1 mm displacement.

Structure (SMILES)	NHAC proliferation (BrdU) [1]	aggrecan increase after IL-1 stimulation (aggrecan; IL-1-stimulated (10 ng/mL) explants)	increase in aggrecan expression (aggrecan; unstimulated explants)	IL-1-mediated iNOS expression (iNOS)	media [GAG] compared with stimulated controls ([2]; IL-1-stimulated explants, p=0.1)	media [GAG] compared with unstimulated controls ([2]; unstimulated explants)	IL-1-mediated NO production [3]	cell viability ([4]; IL-1-stimulated explants)	cell viability ([4]; unstimulated explants)
CCCCCCCCC=CCCCCCCCC(=O)O [Fraction F1.4, 9-Octadecenoic acid]	most active	–	–	–	–	–	–	–	–
COc1ccc2c(c1)c(CC(=O)O)c(C)n2C(=O)c1ccc(Cl)cc1 [indosim, indomethacin]	–	completely abolished	58 fold	augmenting effect	elevated compared with stimulated controls over the duration of the experiment, but not significantly	significantly higher	increase	no significant effect	no significant effect
